Results: patent EP4011367A1, “COMPOUNDS FOR USE IN THE TREATMENT OF COVID-19” (priority 2020, dated 2022)
Where a name gives a salt, the structure may show the parent alone. Read-outs that look alike come from different tables or passages of the source.

Biological target: T1, SARS-CoV-2 3CL-Pro (Severe acute respiratory syndrome coronavirus 2, UniProt P0DTD1)
T1 construct: SARS-CoV-2 main protease (3CL-Pro), also termed M-Pro
Experiment: biochemical
Settings: for inhibition at 20 µM: read-out: 3CL-Pro Inhibition [%] Primary Screen (20 µM)

[1] = dose response, 8 concentrations, absence of DTT, 60 min pre-incubation at 37 °C, 15 µM substrate, 60 nM enzyme, read-out: IC50

| SMILES | inhibition at 20 µM | IC50 (read-out: IC50) | IC50 | IC50 [1] | 3CL-Pro Inhibition [%] Primary Screen (20 µM) |
| --- | --- | --- | --- | --- | --- |
| O=C(O)c1cc(O)c2c(c1)[C@H]([C@H]1c3cc(C(=O)O)cc(O)c3C(=O)c3c(O[C@@H]4O[C@H](CO)[C@@H](O)[C@H](O)[C@H]4O)cccc31)c1cccc(O[C@@H]3O[C@H](CO)[C@@H](O)[C@H](O)[C@H]3O)c1C2=O [compound 81, (9R)-9-[(9R)-2-carboxy-4-hydroxy-10-oxo-5-[(2S,3R,4S,5S,6R)-3,4,5-trihydroxy-6-(hydroxymethyl)oxan-2-yl]oxy-9H-anthracen-9-yl]-4-hydroxy-10-oxo-5-[(2S,3R,4S,5S,6R)-3,4,5-trihydroxy-6-(hydroxymethyl)oxan-2-yl]oxy-9H-anthracene-2-carboxylic acid] | 103% | – | – | – | – |
| CCN(CC)C(=S)SSC(=S)N(CC)CC [compound 46, Tetraethylthioperoxydicarbonic diamide] | 99.7% | – | – | – | – |
| O=C(O)c1ccc(SSc2ccc(C(=O)O)cn2)nc1 [compound 29, 6-[(5-carboxypyridin-2-yl)disulfanyl]pyridine-3-carboxylic acid] | 100% | 240 nM | – | – | – |
| CN(C)C(=S)SC(=S)N(C)C [compound 75, dimethylcarbamothioyl N,N-dimethylcarbamodithioate] | – | 940 nM | – | – | – |
| Nc1ccc(O)c2ncccc12 [compound 34, 5-aminoquinolin-8-ol] | 99.3% | 2050 nM | – | – | – |
| C=C1C(=O)[C@@]23C(CC[C@@H]1[C@H]2O)[C@@]12CO[C@]3(O)[C@@H](O)[C@@H]1C(C)(C)CC[C@@H]2O (stereo partly drawn) [compound 91, (1S,5S,8R,9S,10S,11R,15S,18R)-9,10,15,18-tetrahydroxy-12,12-dimethyl-6-methylidene-17-oxapentacyclo[7.6.2.15,8.01,11.0 2,8]octadecan-7-one] | 98.2% | – | – | – | – |
| Cc1ccc(-n2sc3ccccc3c2=O)cc1 [compound 12, 2-(4-methylphenyl)-1,2-benzothiazol-3-one] | 101% | – | 20 nM | – | – |
| O=c1cc(-c2ccccc2)oc2cc(O)c(O)c(O)c12 [compound 1, 5,6,7-Trihydroxy-2-phenyl-4H-1-benzopyran-4-one] | 97.8% | – | – | – | – |
| Cc1ccc(S(=O)(=O)N[C@@H](Cc2ccccc2)C(=O)C(=O)CCl)cc1 [compound 21, N-[(2S)-5-chloro-3,4-dioxo-1-phenylpentan-2-yl]-4-methylbenzenesulfonamide] | 99.7% | – | 1370 nM | – | – |
| CN(C)C(=S)SSC(=S)N(C)C [compound 45, dimethylcarbamothioylsulfanyl N ,N-dimethylcarbamodithioate] | 99.9% | 50 nM | – | – | – |
| O=C1C(Cl)=C(N2CCOCC2)C(=O)N1c1ccc(Cl)c(Cl)c1 [compound 15, 3-chloro-1-(3,4-dichlorophenyl)-4-morpholin-4-ylpyrrole-2,5-dione] | 99.2% | 1140 nM | – | – | – |
| On1ccccc1=S [compound 48, 1-hydroxypyridine-2-thione] | 101% | – | 50 nM | – | – |
| O=c1sn(-c2cccc3ccccc23)c(=O)n1Cc1ccccc1 [compound 49, 4-Benzyl-2-(1-naphthyl)-1,2,4-thiadiazolidine-3,5-dione] | 101% | – | – | – | – |
| S=c1[nH]nc(Cc2ccccc2)s1 [compound 20, 5-benzyl-3H-1,3,4-thiadiazole-2-thione] | 101% | – | – | 390 nM | – |
| CCOC(=O)Cc1ccc(-c2ccccc2)cc1 [compound 57, [1,1'-Biphenyl]-4-acetic acid ethyl ester] | 96.2% | 200 nM | – | – | – |
| CNC(=O)ON(C(C)=O)C(=O)NC [compound 80, N-[(Methylamino)carbonyl]-N-[[(methylamino)carbonyl]oxy]ace tamide] | 96.4% | 1330 nM | – | – | – |
| C=CC(=O)c1ccc2ccccc2c1 [compound 33, 1-naphthalen-2-ylprop-2-en-1-one] | 94.5% | 1240 nM | – | – | – |
| O=[N+]([O-])C(Br)(CO)CO [compound 67, 2-bromo-2-nitropropane-1,3-diol] | 99.9% | 420 nM | – | – | – |
| C[C@@H]1O[C@@H](Oc2c(-c3cc(O)c(O)c(O)c3)oc3cc(O)cc(O)c3c2=O)[C@H](O)[C@H](O)[C@H]1O [compound 5, 5,7-Dihydroxy-4-oxo-2-(3,4,5-trihydroxyphenyl)-4H-1-benzopyran-3-yl alpha-L-rhamnopyranoside] | 90.6% | – | 3660 nM | – | – |
| CC(C)N(CCC(=O)c1ccc2ccccc2c1)Cc1ccccc1 [compound 71, 3-[benzyl(propan-2-yl)amino]-1-naphthalen-2-ylpropan-1-one] | 75.7% | 580 nM | – | – | – |
| CN1CC[C@@]2(C)c3cc(O)ccc3N(C)[C@@H]12 [compound 85, (3aS,8bR)-3,4,8b-trimethyl-2,3a-dihydro-1H-pyrrolo[2,3-b] indol-7-ol] | 91.5% | 1990 nM | – | – | – |

| SMILES | inhibition at 20 µM | IC50 (read-out: IC50) | IC50 | IC50 [1] | 3CL-Pro Inhibition [%] Primary Screen (20 µM) |
| --- | --- | --- | --- | --- | --- |
| C[N+]1(C)CCC(OC(=O)C(c2ccccc2)c2ccccc2)CC1 [compound 90, (1,1-dimethylpiperidin-1-ium-4-yl) 2,2-diphenylacetate;iodide] | 97.8% | – | 2360 nM | – | – |
| Oc1ccc2ccccc2c1SSc1c(O)ccc2ccccc12 [compound 30, 1,1'-Disulfanediylbis(2-naphthol)] | 91.3% | 510 nM | – | – | – |
| S=c1[nH]c2ccccc2s1 [compound 24, 3H-1,3-benzothiazole-2-thione] | 94% | 1740 nM | – | – | – |
| O=c1c2ccccc2sn1-c1ccccc1 [compound 14, 2-phenyl-1,2-benzothiazol-3-one] | 100% | – | 20 nM | – | – |
| COc1cccc2c1C(=O)c1c(O)c3c(c(O)c1C2=O)C[C@@](O)(C(CO)=NNC(=O)CCCCCN1C(=O)C=CC1=O)C[C@@H]3O[C@H]1C[C@H](N)[C@H](O)[C@H](C)O1 [compound 72, N'-[1-[4(S)-(3-Amino-2,3,6-trideoxy-alpha-L-lyxo-hexopyranosyloxy)-2(S),5,12-trihydroxy-7-methoxy-6,11-dioxo-1,2,3,4,6,11-hexahydronaphthacen-2-yl]-2-hydroxyethylidene]-6-(2,5-dioxo-2,5-dihydro-1H-pyrrol-1-yl)hexanohydrazide hydrochloride] | 101% | – | 580 nM | – | – |
| CC(Cc1ccc(O)c(O)c1)C(C)Cc1ccc(O)c(O)c1 (stereo not shown) [compound 22, 4-[4-(3,4-dihydroxyphenyl)-2,3-dimethylbutyl]benzene-1,2-diol] | 98.5% | 2590 nM | – | – | – |
| O=C1C2CC=CCC2C(=O)N1SC(Cl)(Cl)Cl (stereo not shown) [compound 23, 2-(trichloromethylsulfanyl)-3a,4,7,7a-tetrahydroisoindole-1,3-dione] | 99.8% | 670 nM | – | – | – |
| CCN1CCN(C(c2ccc(C(F)(F)F)cc2)c2ccc3cccnc3c2O)CC1 (stereo not shown) [compound 52, 7-[(4-Ethylpiperazin-1-yl)[4-(trifluoromethyl)phenyl]methyl]q uinolin-8-ol] | 100% | 150 nM | – | – | – |
| CN(C)S(=O)(=O)c1cccc(-n2sc3ccccc3c2=O)c1 [compound 13, N,N-di methyl-3-(3-oxo-1,2-benzothiazol-2-yl)benzenesulfonamide] | 101% | – | – | 20 nM | – |
| COc1cc(C(=S)N2CCOCC2)ccc1O [compound 79, (4-hydroxy-3-methoxyphenyl)-orpholin-4-ylmethanethione] | 100% | 1320 nM | – | – | – |
| CC(C)(C)c1ccc(S(=O)(=O)/C=C/C#N)cc1 [compound 18, 3-(4-tert-Butylphenylsulfonyl)-2(E)-propenenitrile] | 100% | 840 nM | – | – | – |
| O=C1C=CC(=O)C2=C1C1c3ccccc3C2c2ccccc21 [compound 61, Pentacyclo[6.6.6.0(2,7).0(9,14).0(15,20)]icosa-2(7),4,9,11,13,15,17,19-octaene-3,6-dione] | 99.2% | 240 nM | – | – | – |
| O=C1C(Cl)=C(Cl)C(=O)C(Cl)=C1Cl [compound 43, 2,3,5,6-tetrachlorocyclohexa-2,5-diene-1,4-dione] | 101% | 20 nM | – | – | – |
| [O-]n1ccccc1=S.[O-]n1ccccc1=S.[Zn+2] [compound 47, Bis[1-hydroxy-2(1H)-pyiridinethionato]zinc] | – | 2460 nM | – | – | 99.7% |
| C=CC1=C(C)C2=Cc3c(C=C)c(C)c4[n]3[Fe]([Cl])[n]3c(c(C)c(CCC(=O)O)c3=CC3=NC(=C4)C(C)=C3CCC(=O)O)=CC1=N2 [compound 74, - (SP-5-13)-Chloro[3,8,13,17-tetramethyl-7,12-divinyl-21H,23H-porphine-2,18-dipropanoato(4-)-kappa N21,kappaN22,kappaN23,kappaN24]dihydrogenoferrate(2-)] | – | – | 880 nM | – | – |
| O=C(O)CCCCCCCCCCCCCCc1ccc(I)cc1 [compound 88, 15-(4-iodophenyl)pentadecanoic acid] | 95% | 2250 nM | – | – | – |
| c1ccc2sc(SN3CCOCC3)nc2c1 [compound 27, 4-(1,3-benzothiazol-2-ylsulfanyl)morpholine] | 99% | 5050 nM | – | – | – |
| O=[N+]([O-])c1cnc(Sc2nnc(O)n2-c2ccc3c(c2)OCCO3)s1 [compound 64, 4-(2,3-Dihydro-1,4-benzodioxin-6-yl)-5-(5-nitrothiazol-2-ylsulfanyl)-4H-1,2,4-triazol-3-ol] | 96.4% | 300 nM | – | – | – |
| Cc1ccc(S(=O)(=O)C=CC#N)cc1 [compound 17, 3-(4-Methylphenylsulfonyl)-2-propenenitrile] | 95.7% | – | 820 nM | – | – |
| O=C(O[C@@H]1Cc2c(O)cc(O)cc2O[C@@H]1c1cc(O)c(O)c(O)c1)c1cc(O)c(O)c(O)c1 [compound 6, (-)-3,4,5-Trihydroxybenzoic acid 5,7-dihydroxy-2(R)-(3,4,5-trihydroxyphenyl)-3,4-dihydro-2H-1-benzopyran-3(R)-ylester] | 95.3% | – | – | – | – |
| CCC(=O)OCN1C(=O)C=CC1=O [compound 36, Propionic acid 2,5-dioxo-2,5-dihydro-1H-pyrrol-1-ylmethyl ester] | 100% | 290 nM | – | – | – |
